This passage reports MIC results from DBAASP.

Common to all, as to test: ≥ marks a high value that may be exact or a test limit, other limits are often not marked, values filed in µg/mL are converted to µM
The subject of assay [1] is Pseudomonas aeruginosa 253.
The subject of assay [2] is Pseudomonas aeruginosa 910.
In assay [3] the test system is Pseudomonas aeruginosa 919.
The subject of assay [4] is Pseudomonas aeruginosa PAO1.
In assay [5] the test system is Aspergillus oryzae NBRC 100959.
Assay [6] deals with Candida viswanathii NBRC 10321.
Assay [7] relates to Escherichia coli NBRC 3972.
The subject of assay [8] is Micrococcus luteus NBRC 3333.
Assay [9] has as its system Staphylococcus epidermidis NBRC 12993.
Assay [10] has as its system Acinetobacter baumannii ATCC 19606.
Assay [11] deals with Escherichia coli D31.
The test system of assay [12] is Pseudomonas aeruginosa ATCC 10145.
Assay [13] concerns Staphylococcus aureus ATCC 27660.
The subject of assay [14] is Candida albicans ATCC 2002.
Assay [15] deals with Candida albicans ATCC 90028.
Assay [16] has as its system Candida parapsilosis ATCC 22019.
The subject of assay [17] is Enterobacter cloacae ATCC 13047.
For assay [18], the system named is Enterococcus faecalis ATCC 29212.
Assay [19] has as its system Escherichia coli 37.
For assay [20], the system named is Escherichia coli ATCC 25922.
Assay [21] concerns Klebsiella pneumoniae ATCC 700603.
In assay [22] the test system is Klebsiella pneumoniae.
The test system of assay [23] is Pseudomonas aeruginosa ATCC 27853.
Assay [24] relates to Pseudomonas aeruginosa CMCCB 1010.
Assay [25] has as its system Pseudomonas aeruginosa.
In assay [26] the test system is Shigella dysenteriae.
For assay [27], the system named is Staphylococcus aureus 37.
Assay [28] concerns Staphylococcus aureus ATCC 25923.
Assay [29] has as its system Bacillus subtilis DSM 347.
In assay [30] the test system is Escherichia coli DSM 1116.
Assay [31] has as its system Franconibacter helveticus DSM 18390.
The test system of assay [32] is Staphylococcus xylosus DSM 20267.
Assay [33] deals with Klebsiella pneumoniae E406-17.
For assay [34], the system named is Pseudomonas aeruginosa E411-17.
In assay [35] the test system is Staphylococcus aureus M838-17.
Assay [36] relates to Acinetobacter baumannii 7226/16.
Assay [37] concerns Escherichia coli ESBL 521/17.
Assay [38] has as its system Escherichia coli ML-35p.
Assay [39] concerns Klebsiella pneumoniae ESBL 344/17.
For assay [40], the system named is Pseudomonas aeruginosa 522/17.
Assay [41] relates to Staphylococcus aureus 1399/17.
The test system of assay [42] is Staphylococcus aureus ATCC 33591.
Assay [43] concerns Staphylococcus aureus SG511.

The structures appear in SMILES notation. Values after ≈ are worked out from the molar mass of the structure shown. Where only a bound is given, the exact number is not on record here.

Usually MIC stands for the least concentration at which growth counts as inhibited. As to `CC[C@H](C)[C@H](NC(=O)[C@@H](N)Cc1ccccc1)C(=O)N[C@@H](CCCCN)C(=O)N[C@@H](CCCN=C(N)N)C(=O)N[C@@H](CCCCN)C(=O)N[C@@H](CO)C(=O)N[C@@H](CCCN=C(N)N)C(=O)N[C@@H](Cc1c[nH]c2ccccc12)C(=O)N[C@@H](Cc1c[nH]c2ccccc12)C(=O)N[C@@H](CCCCN)C(=O)N[C@@H](Cc1c[nH]c2ccccc12)C(=O)N[C@@H](CCCN=C(N)N)C(=O)N[C@H](C(N)=O)[C@@H](C)O` [FIKRKSRWWKWRT], the MIC was 11.3 µM (≈ 21.2 µg/mL) in [1], 8 µM (≈ 15 µg/mL) in [2], at least 32 µM in assay [3] and 4 µM (≈ 7.51 µg/mL) in assay [4].

Regarding `CC[C@H](C)[C@H](NC(=O)[C@H](CCSC)NC(=O)[C@H](CCCN=C(N)N)NC(=O)[C@H](CCCN=C(N)N)NC(=O)[C@H](CC(C)C)NC(=O)[C@H](Cc1ccc(O)cc1)NC(=O)[C@H](CCCN=C(N)N)NC(=O)[C@H](CCCCN)NC(=O)[C@@H](NC(=O)[C@H](CCCCN)NC(=O)[C@@H](N)CCCN=C(N)N)[C@@H](C)CC)C(=O)N[C@@H](Cc1c[nH]c2ccccc12)C(=O)O` [RKIKRYLRRMIW], the MIC in assay [5] is 7.27 µM (≈ 12.5 µg/mL); in assay [6], 14.5 µM (≈ 25 µg/mL); in assay [7], at least 116 µM; in assay [8], 14.5 µM (≈ 25 µg/mL); in [9], 14.5 µM (≈ 25 µg/mL).

Consider `C[C@H](N)C(=O)N[C@@H](C)C(=O)N[C@@H](Cc1c[nH]c2ccccc12)C(=O)N[C@@H](CCCCN)C(=O)N[C@@H](CCCCN)C(=O)N[C@@H](C)C(=O)N[C@@H](C)C(=O)N[C@@H](CCCCN)C(=O)N[C@@H](CCCCN)C(=O)N[C@@H](C)C(=O)N[C@@H](C)C(=O)N[C@@H](CCCCN)C(=O)N[C@@H](CO)C(=O)N[C@@H](C)C(=O)N[C@@H](CCCCN)C(=O)N[C@@H](CCCCN)C(=O)N[C@@H](C)C(=O)NCC(N)=O` [AAWKKAAKKAAKSAKKAG], for which the minimal inhibitory concentration (MIC) in [10] was above 15 µM; in assay [11], 15 µM (≈ 27.2 µg/mL); in assay [12] it was 15 µM (≈ 27.2 µg/mL); in assay [13], 15 µM (≈ 27.2 µg/mL).

With `CC[C@H](C)[C@H](NC(=O)[C@@H](NC(=O)[C@@H]1CCCN1C(=O)[C@H](CC(C)C)NC(=O)[C@@H](N)Cc1ccccc1)[C@@H](C)CC)C(=O)NCC(=O)N[C@@H](CCCCN)C(=O)N[C@@H](CC(C)C)C(=O)N[C@@H](CC(C)C)C(=O)N[C@@H](CO)C(=O)NCC(=O)N[C@@H](CC(C)C)C(=O)N[C@@H](CC(C)C)C(=O)O` [FLPIIGKLLSGLL], the MIC came to 7.23 µM (≈ 10 µg/mL) in assay [14]; 7.23 µM (≈ 10 µg/mL) in [15]; 1.81 µM (≈ 2.5 µg/mL) in assay [16]; 1.81 µM (≈ 2.5 µg/mL) in assay [17]; 3.61 µM (≈ 5 µg/mL) in assay [18]; 14.5 µM (≈ 20 µg/mL) in assay [19]. Besides, the MIC turned out to be 1.81 µM (≈ 2.5 µg/mL) in assay [20]; 7.23 µM (≈ 10 µg/mL) in assay [21]; 28.9 µM (≈ 40 µg/mL) in [22]; 28.9 µM (≈ 40 µg/mL) in [23]; 7.23 µM (≈ 10 µg/mL) in assay [24]; 3.61 µM (≈ 5 µg/mL) in [25]. For the same molecule, the MIC was 14.5 µM (≈ 20 µg/mL) in assay [26], 3.61 µM (≈ 5 µg/mL) in assay [27] and 0.867 µM (≈ 1.2 µg/mL) in assay [28].

Take `CC(C)C[C@H](NC(=O)[C@H](CCCCN)NC(=O)[C@H](CC(C)C)NC(=O)[C@H](CCCCN)NC(=O)[C@H](CC(C)C)NC(=O)[C@H](CCCCN)NC(=O)[C@H](CC(C)C)NC(=O)[C@H](CCCCN)NC(=O)[C@H](CC(C)C)NC(=O)[C@H](CCCCN)NC(=O)[C@H](CC(C)C)NC(=O)[C@H](CCCCN)NC(=O)[C@H](CC(C)C)NC(=O)[C@@H](N)CCCCN)C(N)=O` [KLKLKLKLKLKLKL]: the minimal inhibitory concentration (MIC) in assay [29] was 2.34 µM (≈ 4 µg/mL); in assay [30], 4.69 µM (≈ 8 µg/mL); in assay [31], 2.34 µM (≈ 4 µg/mL); in [32], 2.34 µM (≈ 4 µg/mL).

Take `CC(C)C[C@H](NC(=O)[C@H](Cc1c[nH]c2ccccc12)NC(=O)[C@H](Cc1c[nH]c2ccccc12)NC(=O)[C@H](Cc1c[nH]c2ccccc12)NC(=O)[C@H](CCCN=C(N)N)NC(=O)[C@H](CCCN=C(N)N)NC(=O)[C@H](CCCN=C(N)N)NC(=O)[C@@H](N)CCCN=C(N)N)C(N)=O` [RRRRWWWL]: the MIC in [33] was at least 50 µM; in [34] it was 12.5 µM (≈ 16.4 µg/mL); in assay [35] it was 6.25 µM (≈ 8.21 µg/mL).

Take `CC[C@H](C)[C@H](NC(=O)[C@H](CCCN=C(N)N)NC(=O)[C@@H](NC(=O)[C@@H]1CCCN1C(=O)[C@H](Cc1c[nH]c2ccccc12)NC(=O)[C@@H]1CCCN1C(=O)[C@H](CCCN=C(N)N)NC(=O)[C@H](CCCN=C(N)N)NC(=O)[C@H](Cc1ccccc1)NC(=O)[C@@H]1CCCN1C(=O)[C@H](CC(C)C)NC(=O)[C@H](CCCN=C(N)N)NC(=O)[C@H](Cc1ccccc1)NC(=O)[C@@H](N)CCCN=C(N)N)[C@@H](C)CC)C(=O)N[C@@H](Cc1cnc[nH]1)C(=O)N1CCC[C@H]1C(=O)N1CCC[C@H]1C(=O)N1CCC[C@H]1C(=O)N[C@@H](Cc1ccccc1)C(=O)N[C@@H](Cc1ccc(O)cc1)C(=O)N1CCC[C@H]1C(=O)N[C@@H](Cc1c[nH]c2ccccc12)C(=O)N1CCC[C@H]1C(=O)N[C@@H](Cc1ccccc1)C(=O)N[C@@H](CCCN=C(N)N)C(=O)N[C@@H](CCCN=C(N)N)C(=O)N[C@@H](Cc1ccccc1)C(=O)N[C@@H](CC(C)C)C(=O)O` [RFRLPFRRPWPIRIHPPPFYPWPFRRFL]: the MIC in assay [36] stood at 11.3 µM (≈ 42.4 µg/mL); in assay [37], 4 µM (≈ 15 µg/mL); in assay [38] it was 4 µM (≈ 15 µg/mL); in assay [39] it was 8 µM (≈ 30 µg/mL); in [40], 16 µM (≈ 60 µg/mL); in [41], 8 µM (≈ 30 µg/mL). Also, the MIC stood at 8 µM (≈ 30 µg/mL) in assay [42] and 0.5 µM (≈ 1.87 µg/mL) in assay [43].
